From patent US12473533B2, “Gene targets for T-cell-based immunotherapy” (The Regents of the University of California, priority 2018, dated 2025)

Tested on: CD8+ T cells
Experiment: Dose titration of CGS-21680 on T cell proliferation (CFSE)
Assay type: cell-based, human
Details: CFSE-labeled CD8+ T cells, two donors
Experimental: FIG. 12A-E. Screen for Resistance to an Immunosuppressive Signal in Primary T Cells Using SLICE, Related to FIG. 6. Section A: a dose titration of adenosine receptor agonist CGS-21680 for the optimal effects on T cell proliferation inhibition identified 20 μM as sufficiently suppressive. Shown are representative CFSE profiles for varying concentrations of CGS-21680, as labeled at the top of each panel. Data is for CFSE-labeled CD8^+ T cells from two human donors. Section C: Comparison of the overlapping top 25 hits for the two screen conditions (CGS-21680 and vehicle). We noted that while many hits from the vehicle screen also boosted proliferation in the presence of the immunosuppressive adenosine agonist (trending along diagonal), ADORA2A and FAM105A sgRNAs were enriched selectively in the setting of the adenosine agonist. ADORA2A and FAM105A were the only hits in the top 0.1% by LFC in the CGS-21680 treated condition and also in the top 0.1% by LFC difference between the CGS-21680 and the vehicle GW screen conditions. Section D: Paralogs FAM105A and OTULIN (FAM105B) are 40% homologous and are encoded at neighboring sites on chromosome 5. […] A non-synonymous single nucleotide polymorphism (SNP) in FAM105A has been linked to allergic disease by genome wide association studies (Ferreira et al., 2017). […]

CCNC(=O)[C@H]1O[C@@H](n2cnc3c(N)nc(NCCc4ccc(CCC(=O)O)cc4)nc32)[C@H](O)[C@@H]1O [CGS-21680]
concentration sufficiently suppressive of T cell proliferation: 20 µM
